{"source": "patent US20070184047A1", "about": "“Nitrophenyls and related compounds and thimerosal for the inhibition of immune related cell or tissue destruction” (Canadian Blood Services, priority 2005, published 2007)", "key": {"[1]": {"system": "FcγR-mediated phagocytosis of anti-D-coated RBCs by monocyte-macrophages (Mφ)", "assay": "Monocyte monolayer assay (MMA): inhibition of phagocytosis of anti-D-sensitized RBCs", "type": "cell-based, human", "conditions": "for inhibition of phagocytosis over the test concentration range: 10^−4 down to 10^−9 mol per L", "text": "The test concentration of immunoglobulin (anti-D or IVIg) was chosen after titration of each immunoglobulin on its own to inhibit FcγR and phagocytosis of anti-D-coated RBCs using a monocyte monolayer assay (MMA) as previously described in Rampersad et al., supra and Foo et al., supra. […] The two controls used in these experiments were chemical alone and immunoglobulin alone. For each experiment, the controls and a mixture of chemical and immunoglobulin in phosphate buffered saline (PBS) pH 7.4, were placed in separate tubes (Sarstedt) and gently rotated for 24 hours at room temperature. The solutions were then transferred to respective cellulose dialysis tubing membranes with a molecular size cut off of 12,000 daltons (Sigma-Aldrich) that had been cut to length and washed as per the manufacturer's directions by boiling in a solution containing one mmol/L ethylenediaminetetraacetic acid (EDTA) (BioShop) and 2% sodium bicarbonate (Fisher Scientific) in PBS. Dialysis was performed in large beakers of PBS for 5-7 days at 4° C. with daily changes of PBS.\nPreparation of anti-D-sensitized R2R2 red blood cells (RBCs) has been previously described in Rampersad et al., supra and Foo et al., supra. Briefly, RBCs were resuspended in PBS to 5% concentration, mixed with an equal volume of human polyclonal anti-D (Immucor, Tex., Houston, USA) in PBS solution, and then incubated for 1 hour at 37° C. and 5% CO2. After which, the sensitized RBCs were washed four times in PBS and resuspended to 2.5% in PBS. […] The MMA was performed as previously described in Foo et al., supra, without modification.\nA phagocytic index was calculated as described in Rampersad et al., supra; Foo et al., supra; and Branch et al., British Journal of Haematology, 1984; 56:19-29, as the unitless number of antibody-sensitized RBCs phagocytosed per 100 Mφ. Residual and phagocytosed RBCs were distinguished by relative differences in refracted light under phase-contrast microscopy. Percent inhibition was calculated as previously described^2 taking the phagocytic control index to be 100. […] Statistical significance of inhibition between treated and untreated Mφ were analysed using Student t-test and Analysis of Variance (ANOVA), and/or, General Linear Model (GLM) Analysis and Student-Newman-Keuls test. A p value of <0.05 was considered to be significant.\nAs previously described with minor modification, Rampersad et al., Transfusion, 2005; 45:384:93, an aliquot of R2R2 RBCs was removed from storage in Alsever's solution, Walker et al., American Association of Blood Banks, 11th ed., Bethesda, 1993, at 4° C. and washed three times in PBS without calcium or magnesium (Gibco/Invitrogen) at 2000 r.p.m. for 7 minutes (Sorvall RT 6000D centrifuge, Mandel Scientific Company Inc., Guelph, Ontario, Canada). The RBCs were resuspended in PBS to 5 percent concentration, mixed with an equal volume of human anti-D in PBS solution, and then incubated for 1 hour at 37° C. and 5 percent CO2 (Sanyo CO2 incubator), after which the sensitized RBCs were washed four times in PBS at 2000 r.p.m. for 7 minutes and resuspended to 2.5 percent in PBS.\nAs previously described with slight modification to improve the quality of the Mφ monolayer, Rampersad et al, supra, whole venous blood was drawn from donors into tubes (Vacutainer, ACD solution A, Becton Dickinson Vacutainer Systems, Franklin Lakes, N.J.) and mixed with an equal volume of PBS."}, "[2]": {"system": "immune-mediated platelet destruction (anti-platelet antibody)", "assay": "Model of immune-mediated platelet destruction, treatment prior to anti-platelet antibody", "type": "in vivo, mice", "conditions": "administered prior to anti-platelet antibody", "experimental": "Referring to FIG. 5, unlike the model in FIG. 4A-4C, the treatment was administered prior to injecting the mice with the anti-platelet antibody."}, "[3]": {"system": "PBMCs", "assay": "FACS annexin V-FITC/PI analysis for viable and apoptotic PBMCs", "type": "cell-based", "conditions": "for effect on PBMC viability or apoptosis: 10^−4 to 10^−9 mol per L, 1 hour; for necrotic cell counts: PBMCs", "text": "Fluorescence-activated cell sorting (FACS) analysis (flow cytometry) and a TACS annexin V-fluorescein isothiocyanate (FITC) apoptosis detection kit (R&D Systems, Minneapolis, Minn.) were used to determine if disulfide-containing compounds benzoylmethyl methyl disulfide and phenyl methyl disulfide exert effects on viability or apoptosis of PBMCs. Briefly, PBMCs were isolated from whole blood as previously outlined and treated with culture medium or chemical from 10^−4 to 10^−9 mol per L for 1 hour at 37° C. and 5 percent CO2. They were then washed three times in PBS and collected by centrifugation at 12,000 r.p.m. for 5 to 10 minutes before being incubated in culture medium for 2 hours. After washing the cells once in cold PBS, according to the manufacturer's instructions, cells were then incubated with annexin V-FITC incubation reagent for 15 minutes at room temperature to stain membrane exposed phosphatidylserine, indicating early programmed cell death or apoptosis. Cells were then stained with propidium iodide (PI), specific for nonviable cells, to identify late apoptotic cells. FACS was performed with two-color analysis on a flow cytometer (FACSCalibur E4795, Becton Dickinson, Mississauga, Ontario, Canada) calibrated with fluorescent beads (CaliBRITE, BD Biosciences, San Jose, Calif.) and computer software for data analyses (Cell Quest, BD Biosciences)."}, "[4]": {"system": "immune-mediated platelet destruction (anti-platelet antibody)", "assay": "Model of immune-mediated platelet destruction, treatment at day 2", "type": "in vivo, mice", "conditions": "single dose at day 2 instead of IVIg, anti-platelet antibody continued daily", "experimental": "Referring now to FIGS. 4A through 4C, shown are the results using a model of immune-mediated platelet destruction wherein the anti-platelet antibody is administered on day 0 and daily thereafter. The platelet count fell abruptly after 24 hours (day 1) indicating platelets were destroyed after the antibody was recognized and bound to the platelets. […] In FIGS. 4B and 4C at day 2, instead of IVIg, two mice were administered a single dose of thimerosal or a nitrophenyl compound p-nitrophenyl methyl disulfide (G-B) (FIG. 4C)."}}, "data": [{"molecule": "CC(O)c1ccccc1", "note": "(stereo not shown) [1-phenylethanol, reference compound]", "values": [{"measurement": "inhibition of phagocytosis over the test concentration range", "setting": "[1]", "result": "None of these compounds were able to inhibit phagocytosis"}]}, {"molecule": "CSCc1ccc([N+](=O)[O-])cc1", "note": "[p-nitrobenzyl methyl sulfide]", "values": [{"measurement": "inhibition of phagocytosis over the test concentration range", "setting": "[1]", "result": "did not inhibit phagocytosis"}]}, {"molecule": "O=[N+]([O-])c1ccccc1", "note": "[nitrobenzene, reference compound]", "values": [{"measurement": "inhibition of phagocytosis over the test concentration range", "setting": "[1]", "result": "None of these compounds were able to inhibit phagocytosis"}]}, {"molecule": "p-nitrophenylethanol", "values": [{"measurement": "inhibition of phagocytosis over the test concentration range", "setting": "[1]", "result": "None of these compounds were able to inhibit phagocytosis"}, {"measurement": "effect on loss of platelets following anti-platelet antibody", "setting": "[2]", "result": "zero platelet loss"}]}, {"molecule": "CSSc1ccccc1", "note": "[phenyl methyl disulfide]", "values": [{"measurement": "inhibition of phagocytosis over the test concentration range", "setting": "[1]", "result": "inhibition of phagocytosis in a dose-dependent manner"}, {"measurement": "inhibition of phagocytosis", "setting": "[1]; 10^−4 mol per L", "result": 54, "unit": "%"}, {"measurement": "effect on PBMC viability or apoptosis", "setting": "[3]", "result": "do not significantly affect PBMC viability or apoptosis"}, {"measurement": "necrotic cell counts", "setting": "[3]; 10^−4 mol per L", "result": 2.36, "unit": "%"}, {"measurement": "necrotic cell counts", "setting": "[3]; 10^−5 mol per L", "result": 1.05, "unit": "%"}]}, {"molecule": "CSSCC(=O)c1ccccc1", "note": "[benzoylmethyl methyl disulfide]", "values": [{"measurement": "inhibition of phagocytosis over the test concentration range", "setting": "[1]", "result": "inhibited phagocytosis in a dose-dependent manner"}, {"measurement": "inhibition of phagocytosis", "setting": "[1]; 10^−4 mol per L", "result": 62, "unit": "%"}, {"measurement": "effect on PBMC viability or apoptosis", "setting": "[3]", "result": "do not significantly affect PBMC viability or apoptosis"}]}, {"molecule": "O=[N+]([O-])c1ccc(O)cc1", "note": "[p-nitrophenol, reference compound]", "values": [{"measurement": "inhibition of phagocytosis over the test concentration range", "setting": "[1]", "result": "None of these compounds were able to inhibit phagocytosis"}]}, {"molecule": "C[CH2][Hg][S]c1ccccc1C(=O)[O-].[Na+]", "note": "[thimerosal]", "values": [{"measurement": "inhibition of phagocytosis", "setting": "[1]; used alone at 10^−3M, undialyzed", "result": 100, "unit": "%"}, {"measurement": "inhibition of phagocytosis after dialysis", "setting": "[1]; used alone at 10^−5M or 10^−3M, after dialysis", "result": "no longer inhibits phagocytosis after dialysis"}, {"measurement": "inhibition of phagocytosis", "setting": "[1]; used alone at 10^−5M, undialyzed", "result": 100, "unit": "%"}, {"measurement": "platelet count after treatment", "setting": "[4]", "result": "the platelet count began to rise"}, {"measurement": "effect on loss of platelets following anti-platelet antibody", "setting": "[2]", "result": "little effect on the subsequent loss of platelets"}]}, {"molecule": "O=C(CS)c1ccccc1", "note": "[benzoylmethyl mercaptan]", "values": [{"measurement": "inhibition of phagocytosis over the test concentration range", "setting": "[1]", "result": "ineffective"}]}, {"molecule": "CSSc1ccc([N+](=O)[O-])cc1", "note": "[p-nitrophenyl methyl disulfide]", "values": [{"measurement": "inhibition of phagocytosis over the test concentration range", "setting": "[1]", "result": "inhibited macrophage phagocytosis in vitro in a dose-dependent manner"}, {"measurement": "inhibition of phagocytosis", "setting": "[1]; 10^−4 mol per L", "result": 98.6, "unit": "%"}, {"measurement": "inhibition of phagocytosis", "setting": "[1]; 10^−7 mol per L", "result": 29, "unit": "%"}, {"measurement": "platelet count after treatment", "setting": "[4]", "result": "the platelet count began to rise"}, {"measurement": "effect on loss of platelets following anti-platelet antibody", "setting": "[2]", "result": "little effect on the subsequent loss of platelets"}]}]}
